From the NIST ThermoML archive (doi:10.1007/s10765-010-0766-0)

Test: wn = mass fraction of the nth substance listed
Details: Liquid, Pycnometric method, w2 = 0.4981

FC(F)C(F)(F)F [pentafluoroethane] + FCF
Details | mass density [kg/m3]
357.15 K, 9042 kPa | 773.5
357.15 K, 9048 kPa | 773.4
357.15 K, 16243 kPa | 919
357.15 K, 16254 kPa | 918.9
357.15 K, 16277 kPa | 919.1
358.15 K, 9284 kPa | 773.4
358.15 K, 9290 kPa | 773.3
358.15 K, 16617 kPa | 918.9
358.15 K, 16628 kPa | 918.8
358.15 K, 16652 kPa | 919.1
359.15 K, 9527 kPa | 773.3
359.15 K, 9532 kPa | 773.3
359.15 K, 16990 kPa | 918.8
359.15 K, 17003 kPa | 918.7
359.15 K, 17027 kPa | 919
360.15 K, 9770 kPa | 773.3
360.15 K, 9775 kPa | 773.2
360.15 K, 17365 kPa | 918.7
360.15 K, 17377 kPa | 918.7
360.15 K, 17401 kPa | 918.9
361.15 K, 10013 kPa | 773.2
361.15 K, 10019 kPa | 773.1
361.15 K, 17739 kPa | 918.6
361.15 K, 17752 kPa | 918.6
361.15 K, 17776 kPa | 918.8
362.15 K, 10256 kPa | 773.2
362.15 K, 10262 kPa | 773.1
362.15 K, 18113 kPa | 918.5
362.15 K, 18127 kPa | 918.5
362.15 K, 18151 kPa | 918.7
363.15 K, 10501 kPa | 773.1
363.15 K, 10506 kPa | 773
363.15 K, 18487 kPa | 918.4
363.15 K, 18501 kPa | 918.4
363.15 K, 18526 kPa | 918.6
364.15 K, 10745 kPa | 773.1
364.15 K, 10751 kPa | 773
364.15 K, 18862 kPa | 918.4
364.15 K, 18876 kPa | 918.3
364.15 K, 18899 kPa | 918.5
365.15 K, 10990 kPa | 773
365.15 K, 10996 kPa | 772.9
365.15 K, 19236 kPa | 918.3
365.15 K, 19250 kPa | 918.3
365.15 K, 19274 kPa | 918.4
366.15 K, 11235 kPa | 772.9
366.15 K, 11241 kPa | 772.9
366.15 K, 19610 kPa | 918.2
366.15 K, 19625 kPa | 918.2
366.15 K, 19649 kPa | 918.4
367.15 K, 11480 kPa | 772.9
367.15 K, 11486 kPa | 772.8
367.15 K, 19985 kPa | 918.1
367.15 K, 20000 kPa | 918.1
367.15 K, 20025 kPa | 918.3
368.15 K, 11726 kPa | 772.8
368.15 K, 11732 kPa | 772.7
368.15 K, 20360 kPa | 918
368.15 K, 20375 kPa | 918
368.15 K, 20400 kPa | 918.2
369.15 K, 11972 kPa | 772.8
369.15 K, 11979 kPa | 772.7
369.15 K, 20734 kPa | 917.9
369.15 K, 20750 kPa | 917.9
369.15 K, 20776 kPa | 918.1
370.15 K, 12219 kPa | 772.7
370.15 K, 12225 kPa | 772.6
370.15 K, 21109 kPa | 917.8
370.15 K, 21125 kPa | 917.8
370.15 K, 21150 kPa | 918
371.15 K, 12465 kPa | 772.6
371.15 K, 12472 kPa | 772.6
371.15 K, 21484 kPa | 917.7
371.15 K, 21500 kPa | 917.7
371.15 K, 21525 kPa | 917.9
372.15 K, 12712 kPa | 772.6
372.15 K, 12719 kPa | 772.5
372.15 K, 21859 kPa | 917.6
372.15 K, 21875 kPa | 917.6
372.15 K, 21901 kPa | 917.8
373.15 K, 12959 kPa | 772.5
373.15 K, 12966 kPa | 772.5
373.15 K, 22234 kPa | 917.5
373.15 K, 22250 kPa | 917.6
373.15 K, 22277 kPa | 917.8
374.15 K, 13207 kPa | 772.5
374.15 K, 13213 kPa | 772.4
374.15 K, 22609 kPa | 917.5
374.15 K, 22625 kPa | 917.5
374.15 K, 22654 kPa | 917.7
375.15 K, 13454 kPa | 772.4
375.15 K, 13461 kPa | 772.3
375.15 K, 22984 kPa | 917.4
375.15 K, 23000 kPa | 917.4
375.15 K, 23029 kPa | 917.6
376.15 K, 13702 kPa | 772.3
376.15 K, 13709 kPa | 772.3
376.15 K, 23359 kPa | 917.3
376.15 K, 23375 kPa | 917.3
376.15 K, 23406 kPa | 917.5
377.15 K, 13950 kPa | 772.3
377.15 K, 13957 kPa | 772.2
377.15 K, 23734 kPa | 917.2
377.15 K, 23750 kPa | 917.2
377.15 K, 23780 kPa | 917.4
378.15 K, 14198 kPa | 772.2
378.15 K, 14205 kPa | 772.2
378.15 K, 24109 kPa | 917.1
378.15 K, 24125 kPa | 917.1
378.15 K, 24155 kPa | 917.3
379.15 K, 14447 kPa | 772.2
379.15 K, 14454 kPa | 772.1
379.15 K, 24484 kPa | 917
379.15 K, 24500 kPa | 917
379.15 K, 24531 kPa | 917.2
380.15 K, 14696 kPa | 772.1
380.15 K, 14702 kPa | 772
380.15 K, 24858 kPa | 916.9
380.15 K, 24875 kPa | 916.9
380.15 K, 24906 kPa | 917.1
381.15 K, 14944 kPa | 772.1
381.15 K, 14951 kPa | 772
381.15 K, 25233 kPa | 916.8
381.15 K, 25250 kPa | 916.8
381.15 K, 25282 kPa | 917
382.15 K, 15194 kPa | 772
382.15 K, 15200 kPa | 771.9
382.15 K, 25608 kPa | 916.7
382.15 K, 25625 kPa | 916.7
382.15 K, 25657 kPa | 916.9
383.15 K, 15443 kPa | 772
383.15 K, 15449 kPa | 771.8
383.15 K, 25983 kPa | 916.6
383.15 K, 26000 kPa | 916.6
383.15 K, 26033 kPa | 916.8
384.15 K, 15692 kPa | 771.9
384.15 K, 15699 kPa | 771.8
384.15 K, 26358 kPa | 916.5
384.15 K, 26375 kPa | 916.5
384.15 K, 26408 kPa | 916.7
385.15 K, 15942 kPa | 771.8
385.15 K, 15948 kPa | 771.7
385.15 K, 26733 kPa | 916.4
385.15 K, 26750 kPa | 916.5
385.15 K, 26784 kPa | 916.6
386.15 K, 16192 kPa | 771.8
386.15 K, 16198 kPa | 771.7
386.15 K, 27107 kPa | 916.3
386.15 K, 27125 kPa | 916.4
386.15 K, 27159 kPa | 916.6
387.15 K, 16442 kPa | 771.7
387.15 K, 16448 kPa | 771.6
387.15 K, 27482 kPa | 916.2
387.15 K, 27500 kPa | 916.3
387.15 K, 27533 kPa | 916.5
388.15 K, 16692 kPa | 771.6
388.15 K, 16698 kPa | 771.5
388.15 K, 27856 kPa | 916.1
388.15 K, 27874 kPa | 916.2
388.15 K, 27907 kPa | 916.4
389.15 K, 16942 kPa | 771.6
389.15 K, 16948 kPa | 771.5
389.15 K, 28231 kPa | 916
389.15 K, 28249 kPa | 916.1
389.15 K, 28282 kPa | 916.3
390.15 K, 17192 kPa | 771.5
390.15 K, 17198 kPa | 771.4
390.15 K, 28605 kPa | 915.9
390.15 K, 28624 kPa | 916
390.15 K, 28657 kPa | 916.2
391.15 K, 17442 kPa | 771.4
391.15 K, 17448 kPa | 771.3
391.15 K, 28979 kPa | 915.8
391.15 K, 28998 kPa | 915.9
391.15 K, 29032 kPa | 916.1
392.15 K, 17692 kPa | 771.4
392.15 K, 17698 kPa | 771.3
392.15 K, 29354 kPa | 915.7
392.15 K, 29373 kPa | 915.8
392.15 K, 29407 kPa | 916
393.15 K, 17943 kPa | 771.3
393.15 K, 17949 kPa | 771.2
393.15 K, 29728 kPa | 915.6
393.15 K, 29782 kPa | 915.9
394.15 K, 18193 kPa | 771.3
394.15 K, 18199 kPa | 771.1
395.15 K, 18444 kPa | 771.2
395.15 K, 18450 kPa | 771.1
396.15 K, 18701 kPa | 771
397.15 K, 18951 kPa | 770.9
